Results as given in PMC6176321, “Efficient Synthesis of Glutamate Peptide-Estradiol Conjugate for Imaging Estrogen Receptor-Positive Diseases” (BioMed Research International, 2018).
Ends that are not written are not given here.

Columns and labels:
[1] = Micro-PET/CT imaging, tumor-to-muscle count density ratio; set-up: species or system mice; settings: mouse, in vivo, 0.14 mg per 100uCi (0.2 mL) per mouse, 0.14mg per 100μCi, iv, n=2 per compound
Procedure: For PET imaging studies, athymic nude mice (n=2 per compound) inoculated with MCF-7 cells (s.c. 10^6 cells/mouse) at the left hind legs. When tumor reached 0.7cm, the tumor-bearing mice were anesthetized with 2% isoflurane on prone position. ^68Ga chloride (5mCi) was obtained by eluting a ^68Ge/^68Ga generator (20mCi size from Eckert Ziegler, Germany) with HCL (0.1N, 1.5 mL). Labeling GAP (1 mg) and GAP-EDL (1mg) was achieved by dissolving both compounds in sodium acetate (0.4 mL, 0.1N, pH 5.4), followed by adding ^68Ga chloride (1mCi, 0.3mL). Both compounds were sat at 37°C for 20 min. For animal imaging studies, the concentrations were diluted to 1.5mL/mg by adding saline (0.9%). Each mouse was administered with ^68Ga-GAP and ^68Ga-GAP-EDL (0.14mg per 100μCi, 0.2 mL, iv). ^68Ga-GAP and ^68Ga-GAP-EDL imaging studies were performed with a Siemens Inveon micro-PET/CT scanner (Siemens Medical Systems, Hoffman Estates, IL). Three serial 30-minute trans-axial PET images were obtained. All corrections for attenuation, scatter, and dead time were applied to generate quantifiable images. Regions of interests were then drawn on the tumor tissue and muscle regions and time activity curves were generated, the counts per pixel were used to determine tumor tissue-to-muscle tissue count density ratios.

[2] = tested on: SK-BR-3 (ER-) breast cancer cells; assay: In vitro cellular uptake assay (sensitivity); format: cell-based; settings: 50,000 cells/well, 4 uCi/80uL/well, 4ug/well, average of three measurements
Procedure: (§1) In vitro cellular uptake studies of ^68Ga-GAP-EDL in breast tumor cells were performed. Breast cancer cell lines with high (MCF7; ER+) and low (SK-BR-3; ER-) estrogen receptor densities were used to determine the sensitivity and specificity for the cellular uptake assay. Briefly, for sensitivity assay, breast tumor cells (50,000 cells/well, 12 wells) were added with ^68GaCl3, ^68Ga-GAP, and ^68Ga-GAP-EDL (4 uCi/80uL/well, 4ug/well). The cells were incubated for 0.5-2 hrs. […] After incubation, the supernatant was collected. The cells were washed twice with ice cold PBS (1 ml) and trypsin EDTA (0.1 ml). After 2 min, the cells were collected. The wells were washed twice with cold PBS (0.5ml). The total volume of cell supernatant and the total volume containing cells were transferred to test tube to count the activity separately. Each piece of data represents an average of three measurements. Percentage of uptake (%)=cell activity/(cell supernatant+ cell activity)∗100% was calculated.

[3] = tested on: MCF7 (ER+) breast cancer cells; assay: In vitro cellular uptake assay (sensitivity); format: cell-based; settings: 50,000 cells/well, 4 uCi/80uL/well, 4ug/well, average of three measurements
Procedure: as §1

Compound	tissue to tissue ratio at 0.5 h ([1]; 30 min)	tissue to tissue ratio at 1 h ([1]; 60 min)	tissue to tissue ratio at 1.5 h ([1]; 90 min)	Percentage of uptake ([2]; SK-BR-3, 30min incubation)	Percentage of uptake ([2]; SK-BR-3, 1h incubation)	Percentage of uptake ([2]; SK-BR-3, 2h incubation)	Percentage of uptake ([3]; MCF-7, 30min incubation)	Percentage of uptake ([3]; MCF-7, 1h incubation)	Percentage of uptake ([3]; MCF-7, 2h incubation)
EEEEEE [^68Ga-GAP, metal not drawn]	1.1 ± 0.02	1.2 ± 0.01	1.2 ± 0.02	1.84±0.27%	3.11±1.29%	2.45±0.21%	2.20±0.73%	3.20±1.17%	2.43±0.71%
[Cl][68Ga]([Cl])[Cl] [^68GaCl3]				1.74±0.21%	1.80±0.20%	2.21±0.11%	1.35±0.35%	1.79±0.28%	1.63±0.33%
